{
  "source": "PubChem BioAssay (NCI)",
  "note": "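A five-concentration, 48-hour dose response in 96-well plates underlies each endpoint, interpolated linearly between surrounding concentrations. GI50 marks 50% less growth. TGI is the concentration that stops growth completely.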",
  "data": [
    {"tested_on": "IGROV1 ovarian", "test": "NCI tumour cell line growth inhibition, 48 h", "units": {"GI50": "µM", "TGI": "µM"}, "values": [
      {"smiles": "COc1ccc2c(C3=C(c4cn(C)c5ccccc45)C(=O)NC3=O)cn(C)c2c1", "GI50": 0.147, "TGI": "> 25"},
      {"smiles": "Cc1ccc(N=Nc2ccc(N(CCC#N)CCC#N)cc2C)c(Br)c1", "TGI": "> 100"},
      {"smiles": "Cc1cc(C)nc(NS(=O)(=O)c2ccc(NC(=O)c3ccc(Cl)c4c(Nc5ccc(S(=O)(=O)Nc6nc(C)cc(C)n6)cc5)c5ccccc5nc34)cc2)n1", "TGI": "> 100"},
      {"smiles": "COc1ccc2c3c1C(=O)CCCC3CO2", "note": "(stereo not given)", "TGI": "> 100"},
      {"smiles": "NC(=O)c1sc(-n2cnc3ccccc32)cc1OCc1ccccc1Br", "GI50": 11, "TGI": "> 25"},
      {"smiles": "O=C1/C(=C/c2ccccc2)CN(C(=O)C(Cl)(Cl)Cl)C/C1=C\\c1ccccc1", "TGI": 5.32},
      {"smiles": "O=S1(=O)c2ccccc2NC(c2ccc3ccccc3c2)CC1c1ccccc1F", "note": "(stereo not given)", "TGI": "> 100"},
      {"smiles": "Cc1nc2ccccc2c(N)c1-c1cc(C)c2c(C)nc3ccccc3c2n1", "GI50": 0.294, "TGI": 0.86},
      {"smiles": "Cc1ccc(NC2=C(Cl)C(=O)N(Cc3ccccc3)C2=O)cc1O", "GI50": 35.4, "TGI": "> 100"}
    ]},
    {"tested_on": "HCT-116 colon", "test": "NCI tumour cell line growth inhibition, 48 h", "units": {"TGI": "µM", "GI50": "µM"}, "values": [
      {"smiles": "CCN(CCO)CC1CCCC2CCCCC21", "note": "(stereo not given)", "TGI": "> 100"},
      {"smiles": "CC[C@@]1(O)C[C@H](OC2CC(N(C)C)C(O)C(C)O2)c2c(O)c3c(c(O)c2[C@H]1OC1CC(N(C)C)C(O)C(C)O1)C(=O)c1cccc(O)c1C3=O", "note": "(stereo not given in full)", "GI50": "< 0.01"},
      {"smiles": "COC1(OC)CCC2C1C1CCC(OC)(OC)C21", "note": "(stereo not given)", "TGI": "> 50"},
      {"smiles": "NNC(=O)Nc1cccnc1", "TGI": "> 100"},
      {"smiles": "CC/C=C\\CCC/C=C1/C(=O)C=C[C@@H]1C/C=C\\CCCC(=O)OC", "GI50": 2.44, "TGI": 4.95},
      {"smiles": "COc1ccc(-c2nc3sccn3c2/C(N)=N/C(=N)N)cc1OC", "GI50": 19.1, "TGI": 45.2},
      {"smiles": "CCCCCCCCCCCOc1ccc(C(=O)C(=O)c2ccc(OCCCCCCCCCCC)c(OCCCCCCCCCCC)c2)cc1OCCCCCCCCCCC", "TGI": "> 100"},
      {"smiles": "Cn1cnc([N+](=O)[O-])c1Sc1nnc(-c2cccnc2)n1C", "TGI": 40.1},
      {"smiles": "CCOC(=O)C1=C(C)NC(=S)NC1c1ccccc1", "note": "(stereo not given)", "TGI": "> 100"},
      {"smiles": "COC1=CC(=O)c2nc(-c3ccncc3)[nH]c2C1=O", "GI50": "> 100", "TGI": "> 100"},
      {"smiles": "O=C(/C=C/c1ccccc1)NC1C=Nc2ccc(Cl)cc2NC1=O", "note": "(stereo not given)", "TGI": 85.7},
      {"smiles": "CC(C)C/C(CC(=O)CCC(=O)Nc1ccccc1[N+](=O)[O-])=N\\NC(=O)c1cc2ccccc2cc1O", "TGI": "> 100"},
      {"smiles": "O=C(O)c1ccccc1[Se][Se]c1ccccc1C(=O)O", "TGI": "> 100"},
      {"smiles": "COc1cc(CNc2cnc3cc(N)cc(N)c3n2)cc(OC)c1", "GI50": 16.3, "TGI": 29.8},
      {"smiles": "O=C(O)CCc1coc2ccc(O)cc12", "TGI": "> 100"},
      {"smiles": "N#CC1C(C#N)C2(c3ccccc3)C(c3ccccc3)=NN(c3ccccc3)CC12", "note": "(stereo not given)", "TGI": "> 100"},
      {"smiles": "COc1cc(Cc2cnc(/N=C3\\C(=O)N(CN4CCN(c5c(F)cc6c(=O)c(C(=O)O)cn(C7CC7)c6c5OC)CC4C)c4ccc(F)cc43)nc2N)cc(OC)c1OC", "note": "(stereo not given)", "GI50": 7.78, "TGI": 20.6},
      {"smiles": "Cc1cccc2c(=O)cc(-c3ccccc3)[nH]c12", "TGI": "> 100"},
      {"smiles": "O=C(Nc1ccccc1)NS(=O)(=O)c1ccc(-n2nc3c(c2-c2cccs2)Cc2ccccc2-3)cc1", "GI50": 9.13, "TGI": 21.3},
      {"smiles": "CCCCOC(=O)C1OC(O[C@H]2CCC3(C)C(CCC4(C)C3CC=C3C5CC(C)(C)CCC5(C(=O)O)CC[C@]34C)C2(C)C)C(OC2OC(CO)C(O)C(O)C2O)C(OC2OC(CO)C(O)C(O)C2O)C1O", "note": "(stereo not given in full)", "GI50": 20.6, "TGI": 42.7},
      {"smiles": "Cc1nc2ccccc2c(=O)n1-c1ccccc1I", "TGI": "> 100"},
      {"smiles": "CN1C(=O)C(C)(C)C2(SC(C)(C)C2(C)C)N(C)C1=S", "note": "(stereo not given)", "TGI": "> 100"},
      {"smiles": "N#CCCN(CCC#N)c1ccc(/C=C2\\N=C(c3cc([N+](=O)[O-])ccc3Cl)OC2=O)cc1", "TGI": "> 100"},
      {"smiles": "CC1=C(C(=O)Nc2ccc(Cl)c(Cl)c2)C(c2cccc(Oc3ccccc3)c2)NC(=S)N1", "note": "(stereo not given)", "GI50": 20.6, "TGI": "> 50"},
      {"smiles": "O=C1C2C(C(=O)N1OS(=O)(=O)c1ccccc1)N(Cc1ccccc1)C(=O)N2Cc1ccccc1", "note": "(stereo not given)", "TGI": "> 100"},
      {"smiles": "COc1ccc2c(C3=C(c4cn(C)c5ccccc45)C(=O)NC3=O)cn(C)c2c1", "GI50": 0.112, "TGI": "> 25"},
      {"smiles": "NC(=O)c1sc(-n2cnc3ccccc32)cc1OCc1ccccc1Br", "GI50": 2.61, "TGI": "> 25"},
      {"smiles": "O=C1/C(=C/c2ccccc2)CN(C(=O)C(Cl)(Cl)Cl)C/C1=C\\c1ccccc1", "TGI": 1.36},
      {"smiles": "Cc1nc2ccccc2c(N)c1-c1cc(C)c2c(C)nc3ccccc3c2n1", "GI50": 0.257, "TGI": 0.728},
      {"smiles": "Cc1ccc(NC2=C(Cl)C(=O)N(Cc3ccccc3)C2=O)cc1O", "GI50": 37.7, "TGI": "> 100"}
    ]}
  ]
}
